{"source": "paper PMC2685802", "about": "“Daptomycin in experimental murine pneumococcal meningitis” (BMC Infectious Diseases, 2009)", "key": {"[1]": {"details": "human, 6 mg/kg q.d. intravenously (highest FDA-approved dose); no reference given; cited from earlier work"}, "[2]": {"test": "Serum antibiotic concentration in mice after intraperitoneal dose (microbiological assay)", "format": "in vivo", "details": "single dose, detection limit 0.5 μg/ml", "description": "The 30 minute serum concentration of vancomycin or daptomycin in 25–30 gram immunocompetent hairless mice (Charles River Laboratories, Wilmington, MA) was determined following intraperitoneal injection of 40, 50 and 60 mg/kg vancomycin or 20, 30, 40 and 50 mg/kg daptomycin, respectively. Pharmacokinetic profiles were determined by injecting 50 mg/kg vancomycin or 25 mg/kg daptomycin intraperitoneally and obtaining serum samples 30, 60, 120, 180 and 240 minutes post injection. Drug activity was measured using a microbiological assay technique. Standard curves for serum drug level determination were performed by making drug dilutions in pooled mouse serum (Innovative Research, Incorporated, Southfield, MI). The reporter bacteria for the vancomycin and daptomycin bioassays were Bacillus subtilis and Micrococcus luteus, respectively. Zones of growth inhibition were measured to the nearest millimeter. The detection limit for both drugs was 0.5 μg/ml."}, "S. pneumoniae Xen10": {"tested_on": "S. pneumoniae Xen10", "test": "Time kill assay", "format": "cell-based, Streptococcus pneumoniae", "details": "daptomycin 1 μg/ml or vancomycin 2 μg/ml alone and with dexamethasone 100 μg/ml", "from_the_text": "Figure 1 Time kill assay. […] DP, daptomycin; VN, vancomycin; DX, dexamethasone."}, "[3]": {"tested_on": "penicillin-resistant pneumococcal strains", "details": "cited from earlier work", "from_the_text": "Four studies of daptomycin treatment of experimental meningitis have been reported. […] Similarly, Gerber et al. reported bactericidal activity in a rabbit model of Staphyloco ..."}, "[4]": {"tested_on": "Streptococcus pneumoniae A 66.1 serotype 3 (Xen 10)", "format": "in vivo, mice", "description": "This study was approved by the Institutional Animal Care and Use Committee of the Mayo Clinic, Rochester, Minnesota. Ninety-six 25–30 gram immunocompetent hairless mice were divided into three treatment groups. Sixteen hours prior to treatment, mice were anesthetized using ketamine and xylazine (45 mg/kg and 5 mg/kg I.M., respectively) and 3 × 10^4 cfu of bacteria in a 20 μl volume were inoculated into the cisterna magna. The time of treatment was selected as the latest time point at which antimicrobial treatment could realistically lead to recovery. […] At 20 hours post infection an additional dose of vancomycin 50 mg/kg was given to the vancomycin-treated animals. Mice not receiving vancomycin at 20 hours were injected with an equal volume of saline. At 16, 20, and 24 hours post infection, 8, 40 and 48 animals, respectively were re anesthetized and cerebrospinal fluid (CSF) was collected by way of puncture from the cisterna magna (using a 28 G 1/2 needle 0.3 × 13 mm from BD Microlance). CSF white-blood cell count was determined and bacterial burden was quantified in CSF by plating serial 10-fold dilutions in sterile isotonic saline onto blood agar plates. Results were expressed as log10 cfu/ml; the detection limit was 20 cfu/ml of CSF. Following collection of CSF, animals were euthanized with a lethal dose of pentobarbital, their brains collected and placed in 10% neutral buffered formalin.\nBacterial concentrations between treatment groups at each time point were compared using the student t-test. Correlation analysis between log10 bacterial CSF titers and log10 photons/second was calculated using SPSS statistical software. For inflammation, neuronal necrosis, and apoptosis scores, statistical analysis included a nonparametric Kruskal-Wallis test followed by a Dunn's test comparing all treatment groups using a confidence level of 95%."}, "[5]": {"details": "vancomycin 50 mg/kg intraperitoneally, bioassay with Bacillus subtilis"}}, "note": "Where two headings read alike, the source gives them in different places.", "data": [{"smiles": "CCCCCCCCCC(=O)N[C@@H](Cc1c[nH]c2ccccc12)C(=O)N[C@H](CC(N)=O)C(=O)N[C@@H](CC(=O)O)C(=O)N[C@@H]1C(=O)NCC(=O)N[C@@H](CCCN)C(=O)N[C@@H](CC(=O)O)C(=O)N[C@H](C)C(=O)N[C@@H](CC(=O)O)C(=O)NCC(=O)N[C@H](CO)C(=O)N[C@@H]([C@H](C)CC(=O)O)C(=O)N[C@@H](CC(=O)c2ccccc2N)C(=O)O[C@@H]1C", "note": "[daptomycin]", "values": [{"measurement": "serum Cmax", "setting": "[1]", "value": "90 to 100", "unit": "µg/mL"}, {"measurement": "level at 4 h", "setting": "[2]; hairless (immunocompetent), mouse, serum, ip, daptomycin 25 mg/kg intraperitoneally, bioassay with Micrococcus luteus", "value": 16, "unit": "µg/mL"}, {"measurement": "level at 0.5 h", "setting": "[2]; hairless (immunocompetent), mouse, serum, ip, daptomycin 25 mg/kg intraperitoneally, bioassay with Micrococcus luteus, read-out: serum concentration at 30 minutes", "value": 127, "unit": "µg/mL"}, {"measurement": "in vitro bactericidal activity, effect of dexamethasone", "setting": "S. pneumoniae Xen10", "value": "not affected"}, {"measurement": "release of [3H]choline (marker of cell wall lysis)", "setting": "[3]; compared with ceftriaxone treatment", "value": "negligible"}, {"measurement": "penetration across inflamed meninges", "setting": "[3]; rabbit, in vivo", "value": 6, "unit": "%"}, {"measurement": "CSF titers at 24 hours post infection", "setting": "[4]; mouse, in vivo", "value": 3.9, "unit": "log10 cfu/ml"}, {"measurement": "drop of bacterial titers four hours after a single treatment", "setting": "[4]; mouse, in vivo", "value": 1.33, "unit": "log10"}]}, {"smiles": "CN[C@H](CC(C)C)C(=O)N[C@H]1C(=O)N[C@@H](CC(N)=O)C(=O)N[C@H]2C(=O)N[C@H]3C(=O)N[C@H](C(=O)N[C@H](C(=O)O)c4cc(O)cc(O)c4-c4cc3ccc4O)[C@H](O)c3ccc(c(Cl)c3)Oc3cc2cc(c3O[C@@H]2O[C@H](CO)[C@@H](O)[C@H](O)[C@H]2O[C@H]2C[C@](C)(N)[C@H](O)[C@H](C)O2)Oc2ccc(cc2Cl)[C@H]1O", "note": "[vancomycin]", "values": [{"measurement": "serum level at 30 minutes", "setting": "[2]; [5]", "value": 55, "unit": "µg/mL"}, {"measurement": "serum level at 3 hours", "setting": "[2]; [5]", "value": "< 0.5", "unit": "µg/mL"}, {"measurement": "in vitro bactericidal activity, effect of dexamethasone", "setting": "S. pneumoniae Xen10", "value": "not affected"}, {"measurement": "drop of bacterial titers four hours after a single treatment", "setting": "[4]; CSF, mice, accompanied by 1 mg/kg of dexamethasone, daptomycin 25 mg/kg or vancomycin 50 mg/kg i.p.", "value": 0.43, "unit": "log10"}, {"measurement": "CSF titers at 24 hours post infection", "setting": "[4]; mice, vancomycin 50 mg/kg at 16 and 20 hours or daptomycin 25 mg/kg at 16 hours, i.p., with dexamethasone 1 mg/kg every 6 hours", "value": 3.4, "unit": "log10 cfu/ml"}]}]}
